Read-outs that look alike come from different tables or passages of the source.
Tests used:
Assay in all cases: biochemical
Design in all cases: KINOMEscan scanMAX competition binding, DNA-tagged kinases, qPCR read-out, percent control at 300 nM
RET = RET (Homo sapiens, UniProt P07949)
DCAMKL2 = biological target: T1, DCAMKL2 (Homo sapiens, UniProt Q8N568)
T1 construct: gene DCLK2

CIT = CIT (Homo sapiens, UniProt O14578)
SRPK2 = SRPK2 (Homo sapiens, UniProt P78362)
ERK2 = biological target: T2, ERK2 (Homo sapiens, UniProt P28482)
T2 construct: gene MAPK1

NDR1 = biological target: T3, NDR1 (Homo sapiens, UniProt Q15208)
T3 construct: gene STK38

EGFR(S752-I759del) = EGFR(S752-I759del) (Homo sapiens, UniProt P00533, DEL752-759)
[1] = biological target: T4, RPS6KA4(Kin.Dom.2-C-terminal) (Homo sapiens, UniProt O75676)
T4 construct: Kin.Dom.2-C-terminal

TESK1 = TESK1 (Homo sapiens, UniProt Q15569)
WEE2 = WEE2 (Homo sapiens, UniProt P0C1S8)
CDK4-cyclinD3 = biological target: T5, CDK4-cyclinD3 (Homo sapiens, UniProt P11802)
T5 construct: cyclinD3

INSRR = INSRR (Homo sapiens, UniProt P14616)
DRAK2 = biological target: T6, DRAK2 (Homo sapiens, UniProt O94768)
T6 construct: gene STK17B

TBK1 = TBK1 (Homo sapiens, UniProt Q9UHD2)
LCK = LCK (Homo sapiens, UniProt P06239)
ARK5 = biological target: T7, ARK5 (Homo sapiens, UniProt O60285)
T7 construct: gene NUAK1

RAF1 = RAF1 (Homo sapiens, UniProt P04049)
EPHB4 = EPHB4 (Homo sapiens, UniProt P54760)
NEK1 = NEK1 (Homo sapiens, UniProt Q96PY6)
PKAC-beta = biological target: T8, PKAC-beta (Homo sapiens, UniProt P22694)
T8 construct: gene PRKACB

MKK7 = biological target: T9, MKK7 (Homo sapiens, UniProt O14733)
T9 construct: gene MAP2K7

BMPR1B = BMPR1B (Homo sapiens, UniProt O00238)
[2] = biological target: T10, RPS6KA5(Kin.Dom.1-N-terminal) (Homo sapiens, UniProt O75582)
T10 construct: Kin.Dom.1-N-terminal

[3] = read-out: Percent control / Acalabrutinib
[4] = read-out: Percent control / Ibrutinib
[5] = read-out: Percent control / Tirabrutinib
[6] = read-out: Percent control / Zanubrutinib

T3 sequence (Q15208 whole entry): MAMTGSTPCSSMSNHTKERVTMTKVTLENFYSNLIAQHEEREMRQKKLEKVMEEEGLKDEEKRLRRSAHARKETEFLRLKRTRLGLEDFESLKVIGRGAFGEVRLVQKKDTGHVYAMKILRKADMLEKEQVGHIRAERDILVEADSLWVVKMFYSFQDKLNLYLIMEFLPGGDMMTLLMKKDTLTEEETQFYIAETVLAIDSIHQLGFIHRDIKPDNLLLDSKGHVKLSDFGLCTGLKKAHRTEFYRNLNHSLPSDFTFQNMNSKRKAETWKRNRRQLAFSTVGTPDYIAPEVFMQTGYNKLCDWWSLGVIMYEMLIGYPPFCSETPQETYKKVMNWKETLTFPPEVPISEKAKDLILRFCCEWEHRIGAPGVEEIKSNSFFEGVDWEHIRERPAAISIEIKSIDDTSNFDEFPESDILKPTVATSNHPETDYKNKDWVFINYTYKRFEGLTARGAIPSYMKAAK
CIT, sequence (O14578 whole entry): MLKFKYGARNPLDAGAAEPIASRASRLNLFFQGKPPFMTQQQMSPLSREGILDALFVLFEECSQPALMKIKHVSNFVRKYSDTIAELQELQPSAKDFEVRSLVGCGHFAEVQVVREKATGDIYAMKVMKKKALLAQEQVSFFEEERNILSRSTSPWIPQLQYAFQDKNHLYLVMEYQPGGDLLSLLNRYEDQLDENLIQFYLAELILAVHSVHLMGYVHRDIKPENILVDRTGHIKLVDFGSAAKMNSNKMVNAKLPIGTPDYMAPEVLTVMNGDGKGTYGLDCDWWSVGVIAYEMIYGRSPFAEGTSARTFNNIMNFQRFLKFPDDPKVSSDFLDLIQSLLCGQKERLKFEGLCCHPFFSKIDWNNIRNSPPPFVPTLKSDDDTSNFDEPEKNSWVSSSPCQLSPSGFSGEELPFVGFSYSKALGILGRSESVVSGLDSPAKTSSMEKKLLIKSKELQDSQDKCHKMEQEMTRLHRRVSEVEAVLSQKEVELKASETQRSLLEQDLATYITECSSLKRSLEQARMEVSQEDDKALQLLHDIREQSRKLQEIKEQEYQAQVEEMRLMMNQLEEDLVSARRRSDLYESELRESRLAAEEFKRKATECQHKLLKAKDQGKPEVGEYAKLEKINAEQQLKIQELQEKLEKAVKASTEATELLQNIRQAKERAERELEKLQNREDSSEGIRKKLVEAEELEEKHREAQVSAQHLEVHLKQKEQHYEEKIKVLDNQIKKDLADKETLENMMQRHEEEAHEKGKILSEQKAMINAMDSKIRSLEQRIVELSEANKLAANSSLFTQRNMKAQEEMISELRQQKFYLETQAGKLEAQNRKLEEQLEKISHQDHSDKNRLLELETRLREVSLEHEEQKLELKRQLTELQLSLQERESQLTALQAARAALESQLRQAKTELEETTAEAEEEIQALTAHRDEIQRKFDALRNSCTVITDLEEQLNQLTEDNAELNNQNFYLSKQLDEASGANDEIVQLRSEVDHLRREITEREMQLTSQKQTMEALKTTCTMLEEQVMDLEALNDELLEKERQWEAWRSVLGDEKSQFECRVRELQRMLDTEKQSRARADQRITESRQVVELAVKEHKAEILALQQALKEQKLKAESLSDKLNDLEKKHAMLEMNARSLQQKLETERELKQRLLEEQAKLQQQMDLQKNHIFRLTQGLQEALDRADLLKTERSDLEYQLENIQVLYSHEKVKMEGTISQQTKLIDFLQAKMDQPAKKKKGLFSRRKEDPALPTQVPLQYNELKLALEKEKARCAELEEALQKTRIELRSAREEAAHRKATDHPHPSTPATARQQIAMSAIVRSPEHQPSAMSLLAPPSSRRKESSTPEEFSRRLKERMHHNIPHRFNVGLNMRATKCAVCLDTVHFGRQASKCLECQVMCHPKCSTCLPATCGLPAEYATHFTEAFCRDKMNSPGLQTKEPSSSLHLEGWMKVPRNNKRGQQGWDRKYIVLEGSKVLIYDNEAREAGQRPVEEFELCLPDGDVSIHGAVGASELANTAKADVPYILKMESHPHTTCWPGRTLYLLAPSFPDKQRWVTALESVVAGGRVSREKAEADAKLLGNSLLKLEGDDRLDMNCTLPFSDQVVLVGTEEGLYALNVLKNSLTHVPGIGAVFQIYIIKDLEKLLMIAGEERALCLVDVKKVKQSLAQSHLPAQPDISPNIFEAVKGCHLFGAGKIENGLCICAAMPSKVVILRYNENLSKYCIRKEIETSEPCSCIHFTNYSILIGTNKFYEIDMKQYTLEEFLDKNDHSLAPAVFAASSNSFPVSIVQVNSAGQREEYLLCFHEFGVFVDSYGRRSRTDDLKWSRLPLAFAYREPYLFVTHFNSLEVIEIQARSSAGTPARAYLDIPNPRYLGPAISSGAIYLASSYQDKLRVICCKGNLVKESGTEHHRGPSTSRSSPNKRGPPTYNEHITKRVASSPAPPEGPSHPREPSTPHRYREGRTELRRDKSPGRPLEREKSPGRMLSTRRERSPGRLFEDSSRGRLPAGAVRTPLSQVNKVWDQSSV
T7 sequence (O60285 whole entry): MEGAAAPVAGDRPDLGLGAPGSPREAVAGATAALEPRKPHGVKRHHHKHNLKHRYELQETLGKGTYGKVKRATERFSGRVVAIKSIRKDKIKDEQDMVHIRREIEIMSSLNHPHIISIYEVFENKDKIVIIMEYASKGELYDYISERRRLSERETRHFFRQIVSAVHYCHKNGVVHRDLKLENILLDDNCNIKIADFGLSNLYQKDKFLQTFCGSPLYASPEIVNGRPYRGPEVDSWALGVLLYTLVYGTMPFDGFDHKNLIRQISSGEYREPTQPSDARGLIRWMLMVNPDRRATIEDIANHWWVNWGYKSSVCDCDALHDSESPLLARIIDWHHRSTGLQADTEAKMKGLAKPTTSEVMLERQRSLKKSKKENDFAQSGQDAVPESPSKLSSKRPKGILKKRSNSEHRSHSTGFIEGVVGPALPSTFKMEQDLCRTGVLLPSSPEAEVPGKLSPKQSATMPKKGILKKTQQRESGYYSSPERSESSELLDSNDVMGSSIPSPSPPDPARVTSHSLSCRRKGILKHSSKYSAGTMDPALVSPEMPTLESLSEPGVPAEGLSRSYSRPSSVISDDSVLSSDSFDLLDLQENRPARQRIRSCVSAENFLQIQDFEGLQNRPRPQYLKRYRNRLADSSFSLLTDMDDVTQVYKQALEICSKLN
SRPK2, sequence (P78362 whole entry): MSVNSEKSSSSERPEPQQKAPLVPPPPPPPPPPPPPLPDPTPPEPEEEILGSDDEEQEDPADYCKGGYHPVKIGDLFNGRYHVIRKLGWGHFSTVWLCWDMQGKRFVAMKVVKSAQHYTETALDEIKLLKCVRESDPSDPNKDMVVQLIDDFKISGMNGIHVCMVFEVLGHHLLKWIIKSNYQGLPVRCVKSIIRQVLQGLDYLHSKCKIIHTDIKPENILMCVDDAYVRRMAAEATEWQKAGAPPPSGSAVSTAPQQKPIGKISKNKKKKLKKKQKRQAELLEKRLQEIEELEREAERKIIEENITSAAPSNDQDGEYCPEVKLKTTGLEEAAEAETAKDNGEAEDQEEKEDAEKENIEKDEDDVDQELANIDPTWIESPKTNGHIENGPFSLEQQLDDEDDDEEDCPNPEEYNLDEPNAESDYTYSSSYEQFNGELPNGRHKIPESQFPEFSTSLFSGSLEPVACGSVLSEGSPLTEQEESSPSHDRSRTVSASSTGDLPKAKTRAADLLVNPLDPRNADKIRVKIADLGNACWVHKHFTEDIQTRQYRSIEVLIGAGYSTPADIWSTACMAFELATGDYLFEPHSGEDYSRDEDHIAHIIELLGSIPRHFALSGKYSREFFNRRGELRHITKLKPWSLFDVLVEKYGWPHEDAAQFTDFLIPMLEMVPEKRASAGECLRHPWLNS
LCK, sequence (P06239 whole entry): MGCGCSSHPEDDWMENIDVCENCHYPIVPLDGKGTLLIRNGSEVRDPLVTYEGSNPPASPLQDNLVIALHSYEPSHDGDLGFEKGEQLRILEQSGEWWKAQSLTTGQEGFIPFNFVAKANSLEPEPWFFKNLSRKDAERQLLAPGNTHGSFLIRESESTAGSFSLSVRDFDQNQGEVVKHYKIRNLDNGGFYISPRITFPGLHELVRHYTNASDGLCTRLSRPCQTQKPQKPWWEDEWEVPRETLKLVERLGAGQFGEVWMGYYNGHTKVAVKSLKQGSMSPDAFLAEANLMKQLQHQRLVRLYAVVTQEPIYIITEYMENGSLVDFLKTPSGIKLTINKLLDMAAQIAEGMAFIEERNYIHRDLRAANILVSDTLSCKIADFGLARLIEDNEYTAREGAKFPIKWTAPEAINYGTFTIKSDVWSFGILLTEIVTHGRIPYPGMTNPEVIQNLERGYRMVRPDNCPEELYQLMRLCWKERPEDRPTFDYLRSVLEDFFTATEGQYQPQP
WEE2, sequence (P0C1S8 whole entry): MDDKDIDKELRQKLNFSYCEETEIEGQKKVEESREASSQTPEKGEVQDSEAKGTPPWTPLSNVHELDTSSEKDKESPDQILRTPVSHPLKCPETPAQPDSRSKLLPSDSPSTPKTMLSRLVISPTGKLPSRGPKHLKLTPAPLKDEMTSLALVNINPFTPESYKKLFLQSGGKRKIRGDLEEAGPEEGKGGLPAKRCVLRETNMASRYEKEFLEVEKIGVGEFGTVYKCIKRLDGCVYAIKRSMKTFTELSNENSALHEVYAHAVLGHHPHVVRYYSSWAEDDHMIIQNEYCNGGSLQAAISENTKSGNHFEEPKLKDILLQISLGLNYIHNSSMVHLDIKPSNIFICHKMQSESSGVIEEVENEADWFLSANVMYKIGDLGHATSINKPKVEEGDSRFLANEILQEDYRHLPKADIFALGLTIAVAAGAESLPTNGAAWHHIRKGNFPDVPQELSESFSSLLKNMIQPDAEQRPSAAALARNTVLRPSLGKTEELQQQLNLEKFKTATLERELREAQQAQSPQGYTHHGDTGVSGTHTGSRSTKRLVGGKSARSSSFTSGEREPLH

## CC#CC(=O)N1CCC[C@H]1c1nc(-c2ccc(C(=O)Nc3ccccn3)cc2)c2c(N)nccn12 [Acalabrutinib]
RET; [3]
  remaining binding at 0.3 µM: 87%
DCAMKL2; [3]
  remaining binding at 0.3 µM: 90%
CIT; [3]
  remaining binding at 0.3 µM: 81%
SRPK2; [3]
  remaining binding at 0.3 µM: 90%
ERK2; [3]
  remaining binding at 0.3 µM: 96%
NDR1; [3]
  remaining binding at 0.3 µM: 97%
EGFR(S752-I759del); [3]
  remaining binding at 0.3 µM: 97%
[1]; [3]
  remaining binding at 0.3 µM: 96%
TESK1; [3]
  remaining binding at 0.3 µM: 79%
WEE2; [3]
  remaining binding at 0.3 µM: 89%
CDK4-cyclinD3; [3]
  remaining binding at 0.3 µM: 97%
INSRR; [3]
  remaining binding at 0.3 µM: 91%
DRAK2; [3]
  remaining binding at 0.3 µM: 97%
TBK1; [3]
  remaining binding at 0.3 µM: 91%
LCK; [3]
  remaining binding at 0.3 µM: 83%
ARK5; [3]
  remaining binding at 0.3 µM: 69%
RAF1; [3]
  remaining binding at 0.3 µM: 75%
EPHB4; [3]
  remaining binding at 0.3 µM: 93%

## C=CC(=O)N1CCC[C@@H](n2nc(-c3ccc(Oc4ccccc4)cc3)c3c(N)ncnc32)C1 [Ibrutinib]
RET; [4]
  remaining binding at 0.3 µM: 40%
NEK1; [4]
  remaining binding at 0.3 µM: 96%
PKAC-beta; [4]
  remaining binding at 0.3 µM: 85%
WEE2; [4]
  remaining binding at 0.3 µM: 93%
DRAK2; [4]
  remaining binding at 0.3 µM: 82%
MKK7; [4]
  remaining binding at 0.3 µM: 8.1%

## CC#CC(=O)N1CC[C@@H](n2c(=O)n(-c3ccc(Oc4ccccc4)cc3)c3c(N)ncnc32)C1 [Tirabrutinib]
BMPR1B; [5]
  remaining binding at 0.3 µM: 98%
EGFR(S752-I759del); [5]
  remaining binding at 0.3 µM: 96%
[2]; [5]
  remaining binding at 0.3 µM: 80%
LCK; [5]
  remaining binding at 0.3 µM: 49%

## C=CC(=O)N1CCC([C@@H]2CCNc3c(C(N)=O)c(-c4ccc(Oc5ccccc5)cc4)nn32)CC1 [Zanubrutinib]
BMPR1B; [6]
  remaining binding at 0.3 µM: 98%
DCAMKL2; [6]
  remaining binding at 0.3 µM: 91%
CIT; [6]
  remaining binding at 0.3 µM: 100%
SRPK2; [6]
  remaining binding at 0.3 µM: 96%
ERK2; [6]
  remaining binding at 0.3 µM: 100%
NDR1; [6]
  remaining binding at 0.3 µM: 97%
NEK1; [6]
  remaining binding at 0.3 µM: 54%
[1]; [6]
  remaining binding at 0.3 µM: 100%
TESK1; [6]
  remaining binding at 0.3 µM: 83%
PKAC-beta; [6]
  remaining binding at 0.3 µM: 82%
CDK4-cyclinD3; [6]
  remaining binding at 0.3 µM: 98%
[2]; [6]
  remaining binding at 0.3 µM: 100%
INSRR; [6]
  remaining binding at 0.3 µM: 96%
TBK1; [6]
  remaining binding at 0.3 µM: 93%
ARK5; [6]
  remaining binding at 0.3 µM: 94%
RAF1; [6]
  remaining binding at 0.3 µM: 88%
EPHB4; [6]
  remaining binding at 0.3 µM: 87%
MKK7; [6]
  remaining binding at 0.3 µM: 80%

— PMC10004634 (PLOS ONE, 2023)
